{"source": "patent US20240189297A1", "about": "(priority 2021, published 2024)", "key": {"[1]": {"conditions": "free base (non-protonated) nicotine; cited from earlier work"}}, "note": "Where two headings read alike, the source gives them in different places."}
{"smiles": "CN1CCCC1c1cccnc1", "note": "(stereo not drawn) [nicotine, 3-(1-methyl-2-pyrrolidinyl) pyridine]", "values": [{"measurement": "pKa value", "setting": "[1]", "result": "about 8"}, {"measurement": "partition coefficient (oil phase : aqueous phase)", "setting": "Samples 1-4: MCT oil vs DI water, basified DI water pH 7.4, artificial saliva pH 6.8, acidified DI water pH 2", "result": "greater than 1"}, {"measurement": "partition coefficient (oil phase : aqueous phase)", "setting": "Samples 5-8: MCT, triacetin or triolein oil vs 1M acetic acid pH adjuster, pH 2", "result": "less than 1"}]}
